Data on two compounds can be found in US12377071B2, “Methods of treating conditions related to the S1P1 receptor” (Arena Pharmaceuticals, Inc., priority 2015, dated 2025).

The subject of data set [1] is peripheral blood lymphocyte (PBL) counts. The experiment in a line: Phase 1 single dose study: peripheral blood lymphocyte counts. The data set is classed as in vivo, human. How it is done: Compound 1 was administered as the L-arginine salt.
The next data set concerns subjects. The experiment in a line: Phase 1 single dose study: safety and tolerability. How it is done:
A phase 1 study with Compound 1 was conducted with single dosing at 0.1 mg, 0.35 mg, 1 mg, 3 mg, and 5 mg. Compound 1 was administered as the L-arginine salt.

Another data set has as its system male Sprague-Dawley rats. Particulars: cited from earlier work.
The conditions of data set [2]: clinical trials; cited from earlier work.

Regarding `O=C(O)C[C@H]1CCc2c1[nH]c1ccc(OCc3ccc(C4CCCC4)c(C(F)(F)F)c3)cc21` [Compound 1, (R)-2-(7-(4-cyclopentyl-3-(trifluoromethyl)benzyloxy)-1,2,3,4-tetrahydrocyclopenta [b]indol-3-yl)acetic acid], in data set [1] (single dose), the “Persistence of PBL nadir” value amounted to 24 h, the “Time after dosing by which total PBL counts were reduced” value was in the range of 2 to 4 h and the “Time of PBL nadir” value was not above 8 h. Also, the “PBL counts reduced by” value in data set [1] (single dose 3 mg) is given as approximately 40%. In data set [1] (single dose 5 mg), the “PBL counts reduced by” value is recorded as approximately 55%. Further, in data set [1] (single dose, after the nadir), the “Recovery of PBL counts to baseline” value stood at 4 days. Moreover, in data set [1] (single dosing at 3 and 5 mg), the “Absolute number of peripheral blood B cells, T cells, NK cells, and all T cell subsets except TEM cells” value is recorded as “dose responsive decline”. Moreover, in the data set with subjects (in vivo), the “Vital signs, ECGs, pulmonary function tests, ophthalmoscopy, clinical laboratory tests” value is recorded as “no other clinically significant safety issues”. Also, in the data set with subjects (single dosing), the Maximum tolerated dose turned out to be 3 mg. Further, in the data set with subjects (single dosing 0.1 to 5 mg), the “Deaths or serious adverse events” value is listed as “no deaths or serious adverse events”. The Bradycardia result with male Sprague-Dawley rats is listed as “no or substantially no bradycardia”.

Consider `CCCCCCCCc1ccc(CCC(N)(CO)CO)cc1` [FTY720, fingolimod], for which, in data set [2], the Adverse event result is reported as “transient asymptomatic bradycardia”.
